Columns and labels:
lactase = molecular target: T1, lactase (Aspergillus oryzae, UniProt Q2UCU3); assay: Lactase activity after dithiol molecule treatment (ONPG); format: biochemical; details: 2.5, 5, or 10 mM, 37° C., 20 min
T1 construct: purchased MilliporeSigma G5160
T1 sequence (Q2UCU3 19-1005): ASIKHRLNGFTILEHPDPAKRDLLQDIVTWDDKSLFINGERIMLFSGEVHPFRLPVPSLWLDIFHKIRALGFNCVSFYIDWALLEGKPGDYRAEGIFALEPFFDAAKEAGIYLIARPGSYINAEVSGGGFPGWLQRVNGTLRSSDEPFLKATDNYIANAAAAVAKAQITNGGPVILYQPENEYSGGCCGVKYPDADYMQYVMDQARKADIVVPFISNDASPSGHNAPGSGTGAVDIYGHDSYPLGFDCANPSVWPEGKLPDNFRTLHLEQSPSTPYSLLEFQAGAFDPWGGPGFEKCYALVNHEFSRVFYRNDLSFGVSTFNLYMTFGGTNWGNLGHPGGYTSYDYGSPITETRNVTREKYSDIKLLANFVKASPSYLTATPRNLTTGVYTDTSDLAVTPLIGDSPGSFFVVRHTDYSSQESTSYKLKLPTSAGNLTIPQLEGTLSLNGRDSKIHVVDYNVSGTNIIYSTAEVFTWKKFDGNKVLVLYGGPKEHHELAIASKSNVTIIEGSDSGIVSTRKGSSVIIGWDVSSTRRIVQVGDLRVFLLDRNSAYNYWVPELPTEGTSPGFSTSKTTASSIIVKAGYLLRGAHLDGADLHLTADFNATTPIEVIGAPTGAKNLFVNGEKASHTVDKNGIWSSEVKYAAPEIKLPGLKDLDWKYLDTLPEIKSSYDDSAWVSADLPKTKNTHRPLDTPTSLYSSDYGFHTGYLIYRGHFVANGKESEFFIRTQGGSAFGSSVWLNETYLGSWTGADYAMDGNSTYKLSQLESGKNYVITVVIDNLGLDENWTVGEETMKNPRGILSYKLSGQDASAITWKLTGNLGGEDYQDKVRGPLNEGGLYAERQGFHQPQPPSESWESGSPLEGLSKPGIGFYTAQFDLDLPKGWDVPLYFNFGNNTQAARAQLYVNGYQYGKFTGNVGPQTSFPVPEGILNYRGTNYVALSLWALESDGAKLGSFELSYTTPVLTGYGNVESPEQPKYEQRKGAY
Procedure: Lactase (18 μg, 60 μL) was added to DMSA or PEG-dithiol to a final DMSA/PEG-dithiol concentration of 2.5, 5, or 10 mM. Treatments were incubated at 37° C. for 20 min. Lactase activity was assayed by adding 60 μL of 5 mM ONPG and incubation for 1 min at room temperature. After, 300 μL of 1 M Na2CO3 was added to stop the reaction, and the absorbance of the solution was read at λ=420 nm.

[1] = Encapsulated lumefantrine pharmacokinetics; format: in vivo; details: pigs, 960 mg lumefantrine
Procedure: All animal studies were performed only after MIT CAC review and approval and under veterinarian supervision. Pigs were dosed with the following treatments via endoscopy: free lumefantrine, lumefantrine encapsulated in alginate hydrogels, and lumefantrine encapsulated in LIFT hydrogels (n=3 each). All pigs were dosed with a total of 960 mg lumefantrine. For free lumefantrine, drug powder was weighed and placed across three gelatin capsules. For hydrogel formulations, lumefantrine powder was suspended in polymer solution (0.5% w/v alginate or 0.5% w/v alginate/5% 4-arm PEG-maleimide), mixed, and administered after crosslinker solution (200 mM CaCl2/10 mM DMSA). Blood was sampled via an installed ear catheter at the indicated time points, and lumefantrine area under the curve was calculated by the trapezoidal rule.
Plasma lumefantrine and desbutyl lumefantrine were separated via high pressure liquid chromatography (HPLC) and quantified with an Agilent 6495A electrospray ionization (ESI) triple quadrupole mass spectrometer (Agilent Technologies, Santa Clara, CA). Samples were introduced to the system with a 5 μL injection volume. Chromatography was performed on an Acquity BEH C18 column (2.1×50 mm, dP 1.8 μm, Waters, Milford, MA), heated to 50° C., with a binary mobile phase composed of 0.1% formic acid in water (v/v, A) and 5% tetrahydrofuran in methanol (v/v, B). […] Nozzle voltage was set to 1500 V and capillary voltage was set to 3500 V. Dynamic multiple reaction-monitoring was used to quantify analytes. Lumefantrine was monitored at transitions 528.16 to 510.00 m/z at 28 collision energy (CE), with a qualifier transition from 528.16 to 383.00 m/z (40 CE). Desbutyl lumefantrine was monitored at 472.1 to 454.1 m/z (20 CE) and qualified from 472.1 to 346 m/z (36 CE). Halofantrine was used as an internal standard and quantified with the 500.18 to 142.10 m/z transition (24 CE) and qualified with the 500.18 to 100.10 m/z transition. […]

cellulase = assay: Cellulase activity after acid exposure in vitro; format: biochemical; details: short incubations in gastric acid

## O=C(O)C(S)C(S)C(=O)O (centres unmarked) [DMSA, dimercaptosuccinic acid]
lactase
  lactase activity after exposure to dithiol compound: attenuated lactase activity

## CCCCN(CCCC)CC(O)c1cc(Cl)cc2c1-c1ccc(Cl)cc1/C2=C/c1ccc(Cl)cc1 (centres unmarked) [free lumefantrine, Lumefantrine]
[1]; pig, other: via endoscopy, plasma, n=3, trapezoidal rule, read-out: area under the curve (AUC) of released drug
  AUC: 14900 ng·h/mL
[1]; pig, other: via endoscopy, plasma, n=3, read-out: maximum observed drug concentration (Cmax)
  Cmax: 901 ± 197 ng/mL
[1]; n=3
  time of peak plasma drug concentration post-administration: 5 to 7 h

## cellulase
cellulase
  activity of free cellulase: significantly degraded enzyme activity
